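Each compound was tested at five concentrations against cells in 96-well plates for 48 hours. Abbreviation: GI50, concentration required for 50% inhibition of growth. At the TGI there is no net growth.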
What was measured:
Test in all cases: NCI anticancer screen, dose series, 48 h
SNB-75 CNS = test system: SNB-75 CNS
HCC-2998 colon = test system: HCC-2998 colon
OVCAR-3 ovarian = test system: OVCAR-3 ovarian
MOLT-4 leukemia = test system: MOLT-4 leukemia
LOX IMVI melanoma = test system: LOX IMVI melanoma
HOP-62 NSCLC = test system: HOP-62 NSCLC
M14 melanoma = test system: M14 melanoma
A549 NSCLC = test system: A549 NSCLC
RPMI-8226 leukemia = test system: RPMI-8226 leukemia
MALME-3M melanoma = test system: MALME-3M melanoma
MCF7 breast = test system: MCF7 breast
ACHN renal = test system: ACHN renal
UACC-62 melanoma = test system: UACC-62 melanoma
DU-145 prostate = test system: DU-145 prostate
SK-OV-3 ovarian = test system: SK-OV-3 ovarian
SN12C renal = test system: SN12C renal
OVCAR-4 ovarian = test system: OVCAR-4 ovarian
HCT-116 colon = test system: HCT-116 colon
SK-MEL-28 melanoma = test system: SK-MEL-28 melanoma
RXF 393 renal = test system: RXF 393 renal
SF-268 CNS = test system: SF-268 CNS
HOP-92 NSCLC = test system: HOP-92 NSCLC
CAKI-1 renal = test system: CAKI-1 renal
HT29 colon = test system: HT29 colon
NCI-H522 lung = test system: NCI-H522 lung
NCI-H226 lung = test system: NCI-H226 lung
SF-539 CNS = test system: SF-539 CNS
MDA-MB-231 breast = test system: MDA-MB-231 breast
NCI-H460 lung = test system: NCI-H460 lung
BT-549 breast = test system: BT-549 breast
SR leukemia = test system: SR leukemia
SF-295 CNS = test system: SF-295 CNS
TK-10 renal = test system: TK-10 renal
PC-3 prostate = test system: PC-3 prostate
SK-MEL-5 melanoma = test system: SK-MEL-5 melanoma
SW-620 colon = test system: SW-620 colon
OVCAR-8 ovarian = test system: OVCAR-8 ovarian
EKVX NSCLC = test system: EKVX NSCLC
SK-MEL-2 melanoma = test system: SK-MEL-2 melanoma
KM12 colon = test system: KM12 colon
COLO 205 colon = test system: COLO 205 colon
UACC-257 melanoma = test system: UACC-257 melanoma
786-0 renal = test system: 786-0 renal
HCT-15 colon = test system: HCT-15 colon
A498 renal = test system: A498 renal
SNB-19 CNS = test system: SNB-19 CNS
UO-31 renal = test system: UO-31 renal
HL-60(TB) leukemia = test system: HL-60(TB) leukemia
T-47D breast = test system: T-47D breast
HS 578T breast = test system: HS 578T breast
U251 CNS = test system: U251 CNS
NCI/ADR-RES ovarian = test system: NCI/ADR-RES ovarian
MDA-MB-435 = test system: MDA-MB-435
NCI-H23 lung = test system: NCI-H23 lung
OVCAR-5 ovarian = test system: OVCAR-5 ovarian

**Q.** How did the GI50 (SNB-75 CNS) turn out when `O=S(=O)(Nc1ccc2ccccc2c1)N1CCCCC1` was run?
**A.** 2.38 µM

**Q.** What about the TGI (SNB-75 CNS) of the same molecule?
**A.** 20.7 µM

**Q.** What about the GI50 (HCC-2998 colon) of the same molecule?
**A.** 8.35 µM

**Q.** And the TGI (HCC-2998 colon)?
**A.** 22.2 µM

**Q.** What about the GI50 (OVCAR-3 ovarian) of the same molecule?
**A.** 4.71 µM

**Q.** And the TGI (OVCAR-3 ovarian)?
**A.** 16.7 µM

**Q.** What about the GI50 (MOLT-4 leukemia) of the same molecule?
**A.** 7.21 µM

**Q.** What about the TGI (MOLT-4 leukemia) of the same molecule?
**A.** 58 µM

**Q.** What about the GI50 (LOX IMVI melanoma) of the same molecule?
**A.** 9.97 µM

**Q.** What about the TGI (LOX IMVI melanoma) of the same molecule?
**A.** 24.6 µM

**Q.** And the GI50 (HOP-62 NSCLC)?
**A.** 3.93 µM

**Q.** What about the TGI (HOP-62 NSCLC) of the same molecule?
**A.** 18.7 µM

**Q.** And the GI50 (M14 melanoma)?
**A.** 8.94 µM

**Q.** And the TGI (M14 melanoma)?
**A.** 25.5 µM

**Q.** And the GI50 (A549 NSCLC)?
**A.** 11.9 µM

**Q.** And the TGI (A549 NSCLC)?
**A.** 38.1 µM

**Q.** What about the GI50 (RPMI-8226 leukemia) of the same molecule?
**A.** 17.8 µM

**Q.** And the TGI (RPMI-8226 leukemia)?
**A.** 75.5 µM

**Q.** What about the GI50 (MALME-3M melanoma) of the same molecule?
**A.** 14.5 µM

**Q.** What about the TGI (MALME-3M melanoma) of the same molecule?
**A.** 34 µM

**Q.** What about the GI50 (MCF7 breast) of the same molecule?
**A.** 9.55 µM

**Q.** What about the TGI (MCF7 breast) of the same molecule?
**A.** 88.9 µM

**Q.** What about the GI50 (ACHN renal) of the same molecule?
**A.** 18.1 µM

**Q.** What about the TGI (ACHN renal) of the same molecule?
**A.** 60.9 µM

**Q.** And the GI50 (UACC-62 melanoma)?
**A.** 8.7 µM

**Q.** What about the TGI (UACC-62 melanoma) of the same molecule?
**A.** 22.2 µM

**Q.** What about the GI50 (DU-145 prostate) of the same molecule?
**A.** 12.1 µM

**Q.** What about the TGI (DU-145 prostate) of the same molecule?
**A.** 30.3 µM

**Q.** What about the GI50 (SK-OV-3 ovarian) of the same molecule?
**A.** 8.93 µM

**Q.** And the TGI (SK-OV-3 ovarian)?
**A.** 37.4 µM

**Q.** And the GI50 (SN12C renal)?
**A.** 13.2 µM

**Q.** And the TGI (SN12C renal)?
**A.** 29.1 µM

**Q.** And the GI50 (OVCAR-4 ovarian)?
**A.** 15.6 µM

**Q.** What about the TGI (OVCAR-4 ovarian) of the same molecule?
**A.** 50.1 µM

**Q.** And the GI50 (HCT-116 colon)?
**A.** 9.94 µM

**Q.** What about the TGI (HCT-116 colon) of the same molecule?
**A.** 23.4 µM

**Q.** What about the GI50 (SK-MEL-28 melanoma) of the same molecule?
**A.** 12 µM

**Q.** And the TGI (SK-MEL-28 melanoma)?
**A.** 28 µM

**Q.** And the GI50 (RXF 393 renal)?
**A.** 5.58 µM

**Q.** And the TGI (RXF 393 renal)?
**A.** 19.7 µM

**Q.** And the GI50 (SF-268 CNS)?
**A.** 11.7 µM

**Q.** What about the TGI (SF-268 CNS) of the same molecule?
**A.** 28.8 µM

**Q.** What about the GI50 (HOP-92 NSCLC) of the same molecule?
**A.** 5.42 µM

**Q.** What about the TGI (HOP-92 NSCLC) of the same molecule?
**A.** 20.4 µM

**Q.** And the GI50 (CAKI-1 renal)?
**A.** 1.81 µM

**Q.** And the TGI (CAKI-1 renal)?
**A.** 7.97 µM

**Q.** What about the GI50 (HT29 colon) of the same molecule?
**A.** 4.87 µM

**Q.** What about the TGI (HT29 colon) of the same molecule?
**A.** 18.9 µM

**Q.** What about the GI50 (NCI-H522 lung) of the same molecule?
**A.** 2.49 µM

**Q.** What about the TGI (NCI-H522 lung) of the same molecule?
**A.** 8 µM

**Q.** And the GI50 (NCI-H226 lung)?
**A.** 14.8 µM

**Q.** And the TGI (NCI-H226 lung)?
**A.** 33.2 µM

**Q.** What about the GI50 (SF-539 CNS) of the same molecule?
**A.** 10.5 µM

**Q.** What about the TGI (SF-539 CNS) of the same molecule?
**A.** 24.9 µM

**Q.** What about the GI50 (MDA-MB-231 breast) of the same molecule?
**A.** 10.1 µM

**Q.** And the TGI (MDA-MB-231 breast)?
**A.** 25 µM

**Q.** What about the GI50 (NCI-H460 lung) of the same molecule?
**A.** 10.1 µM

**Q.** What about the TGI (NCI-H460 lung) of the same molecule?
**A.** 23.3 µM

**Q.** And the GI50 (BT-549 breast)?
**A.** 13.8 µM

**Q.** What about the TGI (BT-549 breast) of the same molecule?
**A.** 28.4 µM

**Q.** What about the GI50 (SR leukemia) of the same molecule?
**A.** 4.15 µM

**Q.** What about the TGI (SR leukemia) of the same molecule?
**A.** 44.6 µM

**Q.** What about the GI50 (SF-295 CNS) of the same molecule?
**A.** 2.4 µM

**Q.** What about the TGI (SF-295 CNS) of the same molecule?
**A.** 15.2 µM

**Q.** What about the GI50 (TK-10 renal) of the same molecule?
**A.** 12.7 µM

**Q.** What about the TGI (TK-10 renal) of the same molecule?
**A.** 32.1 µM

**Q.** What about the GI50 (PC-3 prostate) of the same molecule?
**A.** 13.1 µM

**Q.** What about the TGI (PC-3 prostate) of the same molecule?
**A.** 41.5 µM

**Q.** And the GI50 (SK-MEL-5 melanoma)?
**A.** 8.33 µM

**Q.** What about the TGI (SK-MEL-5 melanoma) of the same molecule?
**A.** 21 µM

**Q.** And the GI50 (SW-620 colon)?
**A.** 5.7 µM

**Q.** And the TGI (SW-620 colon)?
**A.** 20.7 µM

**Q.** What about the GI50 (OVCAR-8 ovarian) of the same molecule?
**A.** 19.6 µM

**Q.** And the TGI (OVCAR-8 ovarian)?
**A.** 57 µM

**Q.** What about the GI50 (EKVX NSCLC) of the same molecule?
**A.** 7.99 µM

**Q.** And the TGI (EKVX NSCLC)?
**A.** 41 µM

**Q.** And the GI50 (SK-MEL-2 melanoma)?
**A.** 9.85 µM

**Q.** And the TGI (SK-MEL-2 melanoma)?
**A.** 23.6 µM

**Q.** And the GI50 (KM12 colon)?
**A.** 4.21 µM

**Q.** What about the TGI (KM12 colon) of the same molecule?
**A.** 17.2 µM

**Q.** And the GI50 (COLO 205 colon)?
**A.** 9.36 µM

**Q.** What about the TGI (COLO 205 colon) of the same molecule?
**A.** 25.3 µM

**Q.** And the GI50 (UACC-257 melanoma)?
**A.** 10.1 µM

**Q.** And the TGI (UACC-257 melanoma)?
**A.** 24 µM

**Q.** What about the GI50 (786-0 renal) of the same molecule?
**A.** 13.6 µM

**Q.** And the TGI (786-0 renal)?
**A.** 30 µM

**Q.** And the GI50 (HCT-15 colon)?
**A.** 8 µM

**Q.** And the TGI (HCT-15 colon)?
**A.** 35.2 µM

**Q.** What about the GI50 (A498 renal) of the same molecule?
**A.** 3.33 µM

**Q.** And the TGI (A498 renal)?
**A.** 15.7 µM

**Q.** What about the GI50 (SNB-19 CNS) of the same molecule?
**A.** 18.4 µM

**Q.** And the TGI (SNB-19 CNS)?
**A.** > 100 µM

**Q.** And the GI50 (UO-31 renal)?
**A.** 6.87 µM

**Q.** What about the TGI (UO-31 renal) of the same molecule?
**A.** 22.9 µM

**Q.** What about the GI50 (HL-60(TB) leukemia) of the same molecule?
**A.** 9.31 µM

**Q.** What about the TGI (HL-60(TB) leukemia) of the same molecule?
**A.** 43.2 µM

**Q.** What about the GI50 (T-47D breast) of the same molecule?
**A.** 11 µM

**Q.** And the TGI (T-47D breast)?
**A.** 45.8 µM

**Q.** What about the GI50 (HS 578T breast) of the same molecule?
**A.** 11.9 µM

**Q.** And the TGI (HS 578T breast)?
**A.** 33.6 µM

**Q.** And the GI50 (U251 CNS)?
**A.** 12 µM

**Q.** And the TGI (U251 CNS)?
**A.** 26.7 µM

**Q.** What about the GI50 (NCI/ADR-RES ovarian) of the same molecule?
**A.** 4.09 µM

**Q.** And the TGI (NCI/ADR-RES ovarian)?
**A.** 22.2 µM

**Q.** And the GI50 (MDA-MB-435)?
**A.** 1.91 µM

**Q.** What about the TGI (MDA-MB-435) of the same molecule?
**A.** 10.8 µM

**Q.** And the GI50 (NCI-H23 lung)?
**A.** 12.2 µM

**Q.** What about the TGI (NCI-H23 lung) of the same molecule?
**A.** 34 µM

**Q.** What about the GI50 (OVCAR-5 ovarian) of the same molecule?
**A.** 19.5 µM

**Q.** What about the TGI (OVCAR-5 ovarian) of the same molecule?
**A.** 43.7 µM

— PubChem BioAssay (NCI)
